The values below come from patent US6596258B1, “Method of obtaining extracellular and intracellular pH images and spectra by magnetic resonance using extrinsic indicators containing 1H or 19F” (Universidad Nacional de Educacion a Distancia, priority 1997, dated 2003).

Bounds are passed on as bounds.

Data set [1] is described as follows: Plasma kinetics after intravenous (jugular vein) injection, 1H NMR of plasma. The conditions noted are these: male Wistar rats.
Data set [2] deals with NIH 3T3 mouse fibroblasts. Nature of the data set: Toxicity in cell culture (cell survival after 72 h incubation). The conditions noted are these: for Cell survival (average optical density, an index of cell number): NIH 3T3, mean±SD of four determinations. The method, then: NIH 3T3 mouse fibroblasts were grown in Dulbecco modified essential medium (DMEM) supplemented with 10% fetal calf serum (FCS, Hyclone, Logan, Utah, USA).
Results represent the mean±SD of four determinations from different culture dishes at each concentration.

The subject of another data set is Male Swiss albino mice. Kind of data set: Toxicity (LD50) in intact animals, intraperitoneal, method of Miller and Tainter. Conditions: doses as high as 3 g/Kg of body weight. From the text:
At least seven different doses, each one of then administered to six mice, which were kept in different cages, were used for each compound.

Data set [3] can be described thus: Kinetics of tissue uptake after intravenous injection, 1H NMR of perchloric acid organ extracts. The conditions noted are these: Wistar rats, 1 mmol intravenous.
[4] abbreviates: injection into right jugular vein.

As for `CCOC(=O)CC(C(=O)O)n1ccnc1` (racemic) [Compound 9, (±)-3-(etoxycarbonyl)-2-imidazol-1-ilpropionic acid], in data set [1] (setting [4]), the “Clearance from plasma, t1/2” value is 6 min; the “Highest concentration in plasma” value came to 6.6 mM; the “Time after injection at which highest plasma concentration was attained” value was 1 min. Further, the “Signs of toxicity during the pharmacokinetic experiment” value in data set [1] (intravenous injection) is given as “No signs of toxicity were detected”. The “Cell survival (average optical density, an index of cell number)” value in data set [2] (1.0 mM compound) is recorded as 1.68 ± 0.04. Also, the “Cell survival (average optical density, an index of cell number)” value in data set [2] (5.0 mM compound) was 1.38 ± 0.06. The “Cell survival (average optical density, an index of cell number)” value in data set [2] (10.0 mM compound) is 1.52 ± 0.13. Moreover, the “Cell survival (average optical density, an index of cell number)” value in data set [2] (20.0 mM compound) was found to be 1.54 ± 0.09. The “Toxicity in cell culture (in words)” value in data set [2] (NIH 3T3, 0 to 20 mM) is recorded as “did not exhibit any toxicity”. Also, the “Toxicity in intact animals (in words)” value in the data set on Male Swiss albino mice is “did not exhibit any toxicity”. Also, in data set [3], the “Concentration reached in brain” value was “absent”, the “Concentration reached in heart” value was < 0.5 μmol/g of body weight, the “Concentration reached in kidney” value is reported as 13.9 μmol/g of body weight and the “Concentration reached in liver” value is recorded as < 0.2 μmol/g of body weight. Further, in data set [3], the “Concentration reached in skeletal muscle” value is reported as 5.8 μmol/g of body weight, the “Time of peak concentration in kidney” value is 10 min and the “Time of peak concentration in skeletal muscle” value amounted to 20 min.

Turning to `c1c[nH]cn1` [Compound 1, Imidazol], in data set [3], the “Concentration reached in kidney” value is 12.1 μmol/g of body weight, the “Concentration reached in skeletal muscle” value is reported as 5.3 μmol/g of body weight, the “Time of peak concentration in kidney” value came to 30 min and the “Time of peak concentration in skeletal muscle” value was in the range of 10 to 20 min.
